Here are results for eleven compounds from patent US9512107B2, “Therapeutically active compositions and their methods of use” (Agios Pharmaceuticals, Inc., priority 2012, dated 2016).

In assay [1] the test system is U87MG pLVX-IDH2 R140Q-neo cells. As to the kind of experiment: U87MG pLVX-IDH2 R140Q-neo cell based assay, 2-HG in media by LC-MS at 48 hours. The conditions noted are these: Homo sapiens, U-87 MG. In outline: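 2-HG secreted into the medium was measured by LC-MS after 48 h of compound treatment (0.2% DMSO final) of U87MG pLVX-IDH2 R140Q-neo cells in DMEM/10% FBS. The same wells were assayed at 72 h by CellTiter-Glo luminescence for effects on growth.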

The target in assay [2] is T1, IDH2 R140Q (Homo sapiens, UniProt P48735, R140Q).
T1 sequence (P48735 40-452 R140Q): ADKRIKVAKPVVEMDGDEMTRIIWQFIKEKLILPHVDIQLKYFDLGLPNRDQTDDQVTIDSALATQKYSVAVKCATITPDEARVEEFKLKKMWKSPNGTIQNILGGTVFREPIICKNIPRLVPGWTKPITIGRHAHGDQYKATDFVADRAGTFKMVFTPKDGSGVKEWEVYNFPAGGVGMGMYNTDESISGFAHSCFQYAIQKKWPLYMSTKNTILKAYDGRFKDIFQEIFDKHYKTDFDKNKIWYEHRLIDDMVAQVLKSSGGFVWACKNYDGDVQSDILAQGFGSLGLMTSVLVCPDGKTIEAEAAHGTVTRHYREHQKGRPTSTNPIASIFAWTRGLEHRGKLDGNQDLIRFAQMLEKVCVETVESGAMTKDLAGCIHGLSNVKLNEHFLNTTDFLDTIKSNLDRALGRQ
As to the kind of experiment: IDH2 R140Q enzymatic assay (cofactor depletion, similar format). It counts as biochemical. The conditions noted are these: read-out: Enz R140Q.

In assay [3] the target is T2, IDH2 R172K (Homo sapiens, UniProt P48735, R172K).
T2 sequence (P48735 40-452 R172K): T1 sequence (P48735 40-452 R140Q) with Q101R, R133K
As to the kind of experiment: IDH2 R172K enzymatic assay (NADPH cofactor depletion, diaphorase/resazurin readout). It is filed as biochemical. The conditions noted are these: read-out: Enz R172K. In outline:
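Cofactor depletion format: enzyme + compound 1 h RT; add substrate mix (50 μM NADPH, 6.3 mM α-KG); react 1 h RT; quench with stop mix (36 μg/ml diaphorase, 60 μM resazurin); read resorufin fluorescence as residual NADPH.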
Background: Resazurin is reduced to fluorescent resorufin, in cell work by metabolically active cells.

Molecules are shown by their SMILES. Where a chain is given by its changes, count along the chain named.

For the compound `CC(C)Nc1nc(Nc2ccnc(C(F)(F)F)c2)nc(-c2cccc(CO)c2)n1` [Compound 639, {3-[4-Isopropylamino-6-(2-trifluoromethyl-pyridin-4-ylamino)-[1,3,5]triazin-2-yl]-phenyl}-methanol], the results for the IC50 in assay [1], in assay [2] and in assay [3] were less than 100 nM, 100 to 1000 nM and less than 100 nM, respectively.
Regarding `CC(C)Nc1nc(Nc2ccnc(C(F)(F)F)c2)nc(-c2cccc(O)c2)n1` [Compound 640, 3-[4-Isopropylamino-6-(2-trifluoromethyl-pyridin-4-ylamino)-[1,3,5]triazin-2-yl]-phenol], the IC50 in assay [1], in assay [2] and in assay [3] was less than 100 nM in each case.
As for `CC(C)(O)CNc1nc(Nc2ccnc(C(F)(F)F)c2)nc(-c2cccc(O)c2)n1` [Compound 641, 3-(4-((2-hydroxy-2-methylpropyl)amino)-6-((2-(trifluoromethyl)pyridin-4-yl)amino)-1,3,5-triazin-2-yl)phenol], the IC50 in assay [1] is less than 100 nM; in assay [2] it was 100 to 1000 nM; in assay [3] it was less than 100 nM.
Turning to `CC(C)Nc1nc(Nc2cc(F)cc(F)c2)nc(-c2cc(O)cc(O)c2)n1` [Compound 642, 5-(4-((3,5-difluorophenyl)amino)-6-(isopropylamino)-1,3,5-triazin-2-yl)benzene-1,3-diol], the IC50 was less than 100 nM in assay [1], 100 to 1000 nM in assay [2] and less than 100 nM in assay [3].
For `CC(C)Nc1nc(Nc2cc(F)cc(F)c2)nc(-c2ccc(N)nc2)n1` [Compound 645, 6-(6-aminopyridin-3-yl)-N2-(3,5-difluorophenyl)-N4-isopropyl-1,3,5-triazine-2,4-diamine], the IC50 in assay [1] is less than 100 nM; in assay [2], 100 to 1000 nM; in assay [3] it was 100 to 1000 nM.
As to `CC(C)(C)Nc1nc(Nc2cc(F)cc(S(C)(=O)=O)c2)nc(-c2cccc(O)c2)n1` [Compound 646, 3-(4-(tert-butylamino)-6-((3-fluoro-5-(methylsulfonyl)phenyl)amino)-1,3,5-triazin-2-yl)phenol], the IC50 is less than 100 nM in assay [1], 100 to 1000 nM in assay [2] and less than 100 nM in assay [3].
Regarding `CC(C)Nc1nc(Nc2ccnc(C(F)(F)F)c2)nc(-c2cc(F)cc(Cl)c2)n1` [Compound 647, 6-(3-chloro-5-fluorophenyl)-N2-isopropyl-N4-(2-(trifluoromethyl)pyridin-4-yl)-1,3,5-triazine-2,4-diamine], the IC50 in assay [1] is less than 100 nM; in assay [2] it was 100 to 1000 nM; in assay [3], 100 to 1000 nM.
On to `COc1ncccc1-c1nc(Nc2ccnc(C(F)(F)F)c2)nc(NC(C)C)n1` [Compound 648, N2-isopropyl-6-(2-methoxypyridin-3-yl)-N4-(2-(trifluoromethyl)pyridin-4-yl)-1,3,5-triazine-2,4-diamine], for which the IC50 is less than 100 nM in assay [1], 100 to 1000 nM in assay [2] and 100 to 1000 nM in assay [3].
With `CC(C)Nc1nc(Nc2cc(F)cc(F)c2)nc(-c2cnc(N)nc2)n1` [Compound 649, 6-(2-aminopyrimidin-5-yl)-N2-(3,5-difluorophenyl)-N4-isopropyl-1,3,5-triazine-2,4-diamine], the results for the IC50 in assay [1], in assay [2] and in assay [3] were 100 to 1000 nM, less than 100 nM and 100 to 1000 nM, respectively.
For `CC(C)Nc1nc(Nc2ccnc(C(F)(F)F)c2)nc(-c2cccc(=O)[nH]2)n1` [Compound 650, 6-(4-(isopropylamino)-6-((2-(trifluoromethyl)pyridin-4-yl)amino)-1,3,5-triazin-2-yl)pyridin-2(1H)-one], the figures for the IC50 in assay [1], in assay [2] and in assay [3] were 100 to 1000 nM, 100 to 1000 nM and 1000 to 10000 nM, respectively.
As to `CC(C)Nc1nc(Nc2ccnc(C(F)(F)F)c2)nc(-c2cccc(C(N)=O)c2)n1` [Compound 651], the figures for the IC50 in assay [1], in assay [2] and in assay [3] were less than 100 nM, 100 to 1000 nM and 100 to 1000 nM, respectively.
